From PubChem BioAssay AID2060328 (Molecular Pharmacology Branch, DTP, NCI, 2025)

System: MDA-MB-231 multicell spheroids, viability (%T/C)
Test: Anticancer human tumor MDA-MB-231 cell line growth inhibition [IpAb];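 also: viability read after seven days of drug exposure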;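 as to viability, T/C: 100% = DMSO vehicle control viability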
Details: for IC50: curve of first compound; for viability, T/C: stronger effect = lower value
Method in brief: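 Combinations with ipatasertib or abemaciclib were tested on tumour spheroids holding HUVEC (25%) and MSC (15%) alongside 60% malignant cells. Top concentration was at or near clinical Cmax (10 microM if undefined), descending in half-log steps.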

In the case of C=CC(=O)N1CCN(c2nc(=O)n(-c3c(C)ccnc3C(C)C)c3nc(-c4c(O)cccc4F)c(F)cc23)C(C)C1 (stereo not given) + CCN1CCN(Cc2ccc(Nc3ncc(F)c(-c4cc(F)c5nc(C)n(C(C)C)c5c4)n3)nc2)CC1, the IC50 (second compound 0.01 µM) is reported as > 10 µM, the IC50 (second compound 0.0316 µM) is reported as > 10 µM and the IC50 (second compound 0.1 µM) is reported as > 10 µM. For the same compound, the IC50 (second compound 0.316 µM) was > 10 µM, the IC50 (second compound 1 µM) was > 10 µM and the viability, T/C (second compound 0.01 µM, first compound 0.0316 µM) was 91.9%. The viability, T/C (second compound 0.01 µM, first compound 0.1 µM) was 93.1%, the viability, T/C (second compound 0.01 µM, first compound 0.316 µM) was 107% and the viability, T/C (second compound 0.01 µM, first compound 1 µM) was 120%. The viability, T/C (second compound 0.01 µM, first compound 3.16 µM) was 111%, the viability, T/C (second compound 0.01 µM, first compound 10 µM) was 76.3% and the viability, T/C (second compound 0.0316 µM, first compound 0.0316 µM) was 78.5%. The viability, T/C (second compound 0.0316 µM, first compound 0.1 µM) was 88.4%, the viability, T/C (second compound 0.0316 µM, first compound 0.316 µM) was 89.9% and the viability, T/C (second compound 0.0316 µM, first compound 1 µM) was 101%. For the same compound, the viability, T/C (second compound 0.0316 µM, first compound 3.16 µM) was 92.3%, the viability, T/C (second compound 0.0316 µM, first compound 10 µM) was 66.4% and the viability, T/C (second compound 0.1 µM, first compound 0.0316 µM) was 61.3%. It also gave a viability, T/C (second compound 0.1 µM, first compound 0.1 µM) of 66.2%, a viability, T/C (second compound 0.1 µM, first compound 0.316 µM) of 73.8% and a viability, T/C (second compound 0.1 µM, first compound 1 µM) of 84.4%. For the same compound, the viability, T/C (second compound 0.1 µM, first compound 3.16 µM) was 74%, the viability, T/C (second compound 0.1 µM, first compound 10 µM) was 59.1% and the viability, T/C (second compound 0.316 µM, first compound 0.0316 µM) was 48.3%. The viability, T/C (second compound 0.316 µM, first compound 0.1 µM) was 51.3%, the viability, T/C (second compound 0.316 µM, first compound 0.316 µM) was 58.6% and the viability, T/C (second compound 0.316 µM, first compound 1 µM) was 65.9%. It also gave a viability, T/C (second compound 0.316 µM, first compound 3.16 µM) of 60.7%, a viability, T/C (second compound 0.316 µM, first compound 10 µM) of 59% and a viability, T/C (second compound 1 µM, first compound 0.0316 µM) of 50.8%. For the same compound, the viability, T/C (second compound 1 µM, first compound 0.1 µM) was 56.2%, the viability, T/C (second compound 1 µM, first compound 0.316 µM) was 61.1% and the viability, T/C (second compound 1 µM, first compound 1 µM) was 67.1%. The viability, T/C (second compound 1 µM, first compound 3.16 µM) was 71.7% and the viability, T/C (second compound 1 µM, first compound 10 µM) was 61.8%.
